Source: US7511041B2, “Fused azole-pyrimidine derivatives” (Bayer Pharmaceuticals Corporation, priority 2002, dated 2009)
Where a name gives a salt, the structure may show the parent alone.

## COc1c(O)ccc2c1N=C(/C=C(\O)c1cccnc1)N1CCN=C21 (as salt: hydrochloride) [Example 1-4, 5-(2-Hydroxy-2-pyridin-3-ylvinyl)-7-methoxy-2,3-dihydroimidazo[1,2-c]quinazolin-8-ol hydrochloride]
  melting point: 245 °C

## COc1cc2c(cc1OC)C1=NCCN1C(NC(=O)c1ccc(NC(C)=O)nc1)=N2.Cl [Example 2-58]
  melting point: 279 °C

## COc1cc2c(cc1OC)C1=NCCN1C(/C=C(\O)c1sc(C)nc1C)=N2.Cl [Example 1-61]
  melting point: 268 to 271 °C

## Cc1ccc2c(c1)C1=NCCN1C(/C=C(\O)c1cccnc1)=N2.Cl [Example 1-132]
  melting point: > 290 °C

## COc1cccc2c1N=C(NC(=O)c1cc3cccnc3nc1C(F)(F)F)N1CCN=C21.Cl [Example 2-129]
  melting point: 225 °C (dec.)

## CC(=O)Nc1ccc(/C(O)=C/C2=Nc3cc(CN4CCOCC4)ccc3C3=NCCN23)cn1.Cl [Example 1-114]
  melting point: 260 °C

## Cc1nc2ccccn2c1C(=O)NC1=Nc2ccccc2C2=NCCN12.Cl [Example 2-171]
  melting point: 328 °C (dec.)

## Cl.O/C(=C\C1=Nc2ccccc2C2=NCCN12)c1cccs1 [Example 1-147]
  melting point: > 300 °C

## O=C(NC1=Nc2ccccc2C2=NCCN12)c1ccccn1.O=C(O)C(F)(F)F [Example 2-277]
  melting point: 206 °C (dec.)

## Cc1ccc(C(=O)NC2=Nc3ccccc3C3=NCCN23)cn1.Cl [Example 2-148]
  melting point: 310 °C (dec.)

## Cl.O=C(NC1=Nc2c(F)cccc2C2=NCCN12)c1ccc2[nH]cnc2c1 [Example 2-102]
  melting point: > 300 °C

## COc1cc(C(=O)NC2=Nc3ccccc3C3=NCCN23)cc(OC)c1C.Cl [Example 2-242]
  melting point: 321 °C (dec.)

## COc1cc(OC)c2c(c1)C1=NCCN1C(NC(=O)c1ccc3[nH]cnc3c1)=N2.Cl [Example 2-73]
  melting point: 289 °C (dec.)

## Cl.O=C(NC1=Nc2cc(OCC(=O)N3CCOCC3)ccc2C2=NCCN12)c1cccnc1 [Example 2-208]
  melting point: 227 °C

## Cl.O/C(=C\C1=Nc2ccccc2C2=NCCN12)c1cnccn1 [Example 1-142]
  melting point: 217 to 222 °C

## Cl.O/C(=C\C1=Nc2cc(N3CCOCC3)ccc2C2=NCCN12)c1ccc2[nH]cnc2c1 [Example 1-101]
  melting point: 286 °C (dec.)

## CNc1ccc(C(=O)NC2=Nc3ccccc3C3=NCCN23)cn1.Cl [Example 2-154]
  melting point: 300 °C (dec.)

## Cc1cnc(C(=O)NC2=Nc3ccccc3C3=NCCN23)cn1.O=C(O)C(F)(F)F [Example 2-295]
  melting point: 231 °C (dec.)

## Cl.O=C(NC1=Nc2ccccc2C2=NCCN12)c1csc([N+](=O)[O-])c1 [Example 2-306]
  melting point: 296 °C (dec.)

## CC(=O)Nc1ccc(/C(O)=C/C2=Nc3c(CN4CCOCC4)cccc3C3=NCCN23)cn1.Cl [Example 1-209]
  melting point: > 260 °C

## O=C(NC1=Nc2ccccc2C2=NCCN12)c1cccc([N+](=O)[O-])c1.O=C(O)C(F)(F)F [Example 2-253]
  melting point: 238 to 239 °C

## Cl.O/C(=C\C1=Nc2ccccc2C2=NCCN12)c1ccco1 [Example 1-144]
  melting point: > 300 °C

## Cc1ccc2c(c1)N=C(/C=C(\O)c1cccnc1)N1CCN=C21.Cl [Example 1-120]
  melting point: > 330 °C

## COc1cc2c(cc1OC)C1=NCCN1C(/C=C(\O)c1cccs1)=N2.Cl [Example 1-59]
  melting point: 266 to 268 °C

## COc1ccc2c(c1OCCN1CCOCC1)N=C(/C=C(\O)c1cccnc1)N1CCN=C21.Cl [Example 1-37]
  melting point: 215 °C

## Cl.O=C(NC1=Nc2c(cccc2C(F)(F)F)C2=NCCN12)c1ccc2[nH]cnc2c1 [Example 2-113]
  melting point: 270 °C

## COc1c(OCC(=O)N2CCOCC2)ccc2c1N=C(/C=C(\O)c1cccnc1)N1CCN=C21.Cl [Example 1-30]
  melting point: 240 to 241 °C

## Cl.NS(=O)(=O)c1ccc(C(=O)NC2=Nc3ccccc3C3=NCCN23)cc1 [Example 2-248]
  melting point: 308 °C (dec.)

## Cc1ncccc1C(=O)NC1=Nc2ccccc2C2=NCCN12.Cl [Example 2-132]
  melting point: 277 °C (dec.)

## COc1cc2c(c(OC)c1C)N=C(/C=C(\O)c1ccc(NC(C)=O)nc1)N1CCN=C21.Cl [Example 1-65]
  melting point: > 285 °C

## Cl.O=C(NC1=Nc2cc(OCCOCCO)ccc2C2=NCCN12)c1cccnc1 [Example 2-202]
  melting point: 229 °C (dec.)

## Cl.Cn1cccc1C(=O)NC1=Nc2ccccc2C2=NCCN12 [Example 2-297]
  melting point: 264 °C (dec.)

## CC(=O)Nc1ccc(/C(O)=C/C2=Nc3cc(N4CCN(C)CC4)ccc3C3=NCCN23)cn1.Cl [Example 1-106]
  melting point: 280 °C (dec.)

## O/C(=C\C1=Nc2cc(Cl)ccc2C2=NCCN12)c1cccnc1 [Example 1-117]
  melting point: 280 °C (dec.)

## Cl.O/C(=C\C1=Nc2c(Br)cccc2C2=NCCN12)c1cccnc1 [Example 1-74]
  melting point: 246 °C

## Cc1ccc2c(c1)N=C(NC(=O)c1cccs1)N1CCN=C21.Cl [Example 2-32]
  melting point: 276 °C

## COc1cccc2c1N=C(NC(=O)c1ccc3[nH]cnc3c1)N1CCN=C21.Cl [Example 2-125]
  melting point: 238 °C

## Cl.O=C(NC1=Nc2ccccc2C2=NCCN12)c1ccc(-n2ccnc2)cc1 [Example 2-269]
  melting point: 324 °C (dec.)

## O/C(=C\c1nc2ccccc2c2nccn12)c1cccs1 (as salt: hydrochloride) [Example 3-1, (Z)-2-Imidazo[1,2-c]quinazolin-5-yl-1-(2-thienyl)ethenol]
  melting point: 263 °C (dec.)

## COc1cc2c(c(OC)c1C)N=C(NC(=O)c1ccc3[nH]cnc3c1)N1CCN=C21.Cl [Example 2-82]
  melting point: 280 °C (dec.)

## COc1ccc2c(c1)C1=NCCN1C(/C=C(\O)c1cccnc1)=N2.Cl [Example 1-127]
  melting point: > 300 °C

## COc1cc2c(cc1OC)C1=NCCN1C(NC(=O)c1cncc(O)c1)=N2.Cl [Example 2-55]
  melting point: 260 °C (dec.)

## COc1ccc2c(c1)N=C(NC(=O)c1ccc(N)nc1)N1CCN=C21.Cl [Example 2-24]
  melting point: 273 °C (dec.)

## Cc1nc(N)ccc1C(=O)NC1=Nc2ccccc2C2=NCCN12.Cl [Example 2-158]
  melting point: 289 °C (dec.)

## Cl.O=C(NC1=Nc2ccccc2C2=NCCN12)c1ccc(-n2cccc2)cc1 [Example 2-267]
  melting point: 309 °C (dec.)

## O=C(NC1=Nc2ccccc2C2=NCCN12)c1cnccn1.O=C(O)C(F)(F)F [Example 2-293]
  melting point: 234 °C (dec.)

## O=C(NC1=Nc2ccccc2C2=NCCN12)c1ccc([N+](=O)[O-])cc1.O=C(O)C(F)(F)F [Example 2-255]
  melting point: 265 °C (dec.)

## Cl.O/C(=C\C1=Nc2cc(CN3CCOCC3)ccc2C2=NCCN12)c1cccnc1 [Example 1-112]
  melting point: 242 °C

## Cl.NS(=O)(=O)c1ccc(C(=O)NC2=Nc3ccccc3C3=NCCN23)c(Cl)c1 [Example 2-250]
  melting point: 300 °C (dec.)

## COc1ccc2c(c1OC)N=C(/C=C(\O)c1cccnc1)N1CCN=C21.Cl [Example 1-11]
  melting point: 249 to 250 °C

## COc1ccc2c(c1Br)N=C(NC(=O)c1cccnc1)N1CCN=C21.Cl [Example 2-66]
  melting point: 298 °C

## COc1c(OCC(=O)N(C)C)ccc2c1N=C(/C=C(\O)c1cccnc1)N1CCN=C21.Cl [Example 1-28]
  melting point: 205 °C (dec.)

## Cl.Nc1ccc(C(=O)NC2=Nc3ccccc3C3=NCCN23)cn1 [Example 2-150]
  melting point: 290 °C (dec.)

## COc1cc(OC)c2c(c1)C1=NCCN1C(/C=C(\O)c1cccnc1)=N2.Cl [Example 1-43]
  melting point: 290 °C (dec.)

## Cl.O=C(NC1=Nc2ccccc2C2=NCCN12)c1ccc([N+](=O)[O-])s1 [Example 2-304]
  melting point: 300 °C (dec.)

## COc1ccc2c(c1OC)N=C(NC(=O)c1cnc3[nH]cnc3c1)N1CCN=C21.Cl [Example 2-52]
  melting point: 210 °C (dec.)

## Cc1ccc2c(c1OCCN1CCOCC1)N=C(/C=C(\O)c1cccnc1)N1CCN=C21.Cl [Example 1-40]
  melting point: 256 °C (dec.)

## COc1c(OCCCC(=O)O)ccc2c1N=C(/C=C(\O)c1cccnc1)N1CCN=C21 (as salt: hydrochloride) [Example 1-7, 4-{[5-(2-Hydroxy-2-pyridin-3-ylvinyl)-7-methoxy-2,3-dihydroimidazo[1,2-c]quinazolin-8-yl]oxy}butanoic acid hydrochloride]
  melting point: 249 to 251 °C

## Cc1ccc2c(c1)N=C(NC(=O)c1cccnc1)N1CCN=C21.Cl [Example 2-28]
  melting point: 315 °C

## COc1cc(OC)c2c(c1)C1=NCCN1C(NC(=O)c1ccc(NC(C)=O)nc1)=N2.Cl [Example 2-71]
  melting point: 270 °C (dec.)

## COc1c(OCCO)ccc2c1N=C(/C=C(\O)c1cccnc1)N1CCN=C21.Cl [Example 1-17]
  melting point: 215 °C (dec.)

## Cl.O=C(NC1=Nc2ccc(Cl)cc2C2=NCCN12)c1cccnc1 [Example 2-85]
  melting point: 309 °C

## COc1cc2c(cc1OC)C1=NCCN1C(/C=C(\O)c1cccnc1)=N2 (as salt: hydrochloride) [Example 1-2, (Z)-2-(8,9-Dimethoxy-2,3-dihydroimidazo[1,2-c]quinazolin-5-yl)-1-(3-pyridinyl)-ethenol hydrochloride]
  melting point: > 300 °C

## COc1cc2c(c(OC)c1C)N=C(/C=C(\O)c1ccc3[nH]cnc3c1)N1CCN=C21.Cl [Example 1-67]
  melting point: > 285 °C

## COc1cc2c(cc1OC)C1=NCCN1C(NC(=O)c1ccc3[nH]cnc3c1)=N2.Cl [Example 2-61]
  melting point: 276 °C

## Cl.O/C(=C\C1=Nc2cc(N3CCOCC3)ccc2C2=NCCN12)c1cccnc1 [Example 1-95]
  melting point: > 300 °C

## CN(C=O)c1ccc(C(=O)NC2=Nc3ccccc3C3=NCCN23)cc1.Cl [Example 2-264]
  melting point: 304 °C (dec.)

## CSc1ccc(C(=O)NC2=Nc3ccccc3C3=NCCN23)cc1.Cl [Example 2-244]
  melting point: 292 °C (dec.)

## Cl.O/C(=C\C1=Nc2ccccc2C2=NCCN12)c1ccno1 [Example 1-153]
  melting point: 245 °C (dec.)

## COc1c(C)cc(C(=O)NC2=Nc3ccccc3C3=NCCN23)cc1C.Cl [Example 2-221]
  melting point: 288 °C (dec.)

## COc1cccc2c1N=C(NC(=O)c1cc3cccnc3nc1C)N1CCN=C21.Cl [Example 2-127]
  melting point: 225 °C (dec.)
